Structures can show the parent of a compound that is named as a salt.
How the values were obtained:
[1] = molecular target: T1, human TLR8 (Homo sapiens, UniProt Q9NR97); test: Human TLR8-specific reporter gene assay (NF-κB induction, sAP readout in HEK293 cells); type: cell-based; conditions: EC50 in human TLR8-specific reporter gene assay
T1 construct: expressed in transfected cells; host or cells: HEK293
T1 sequence (Q9NR97 27-1041): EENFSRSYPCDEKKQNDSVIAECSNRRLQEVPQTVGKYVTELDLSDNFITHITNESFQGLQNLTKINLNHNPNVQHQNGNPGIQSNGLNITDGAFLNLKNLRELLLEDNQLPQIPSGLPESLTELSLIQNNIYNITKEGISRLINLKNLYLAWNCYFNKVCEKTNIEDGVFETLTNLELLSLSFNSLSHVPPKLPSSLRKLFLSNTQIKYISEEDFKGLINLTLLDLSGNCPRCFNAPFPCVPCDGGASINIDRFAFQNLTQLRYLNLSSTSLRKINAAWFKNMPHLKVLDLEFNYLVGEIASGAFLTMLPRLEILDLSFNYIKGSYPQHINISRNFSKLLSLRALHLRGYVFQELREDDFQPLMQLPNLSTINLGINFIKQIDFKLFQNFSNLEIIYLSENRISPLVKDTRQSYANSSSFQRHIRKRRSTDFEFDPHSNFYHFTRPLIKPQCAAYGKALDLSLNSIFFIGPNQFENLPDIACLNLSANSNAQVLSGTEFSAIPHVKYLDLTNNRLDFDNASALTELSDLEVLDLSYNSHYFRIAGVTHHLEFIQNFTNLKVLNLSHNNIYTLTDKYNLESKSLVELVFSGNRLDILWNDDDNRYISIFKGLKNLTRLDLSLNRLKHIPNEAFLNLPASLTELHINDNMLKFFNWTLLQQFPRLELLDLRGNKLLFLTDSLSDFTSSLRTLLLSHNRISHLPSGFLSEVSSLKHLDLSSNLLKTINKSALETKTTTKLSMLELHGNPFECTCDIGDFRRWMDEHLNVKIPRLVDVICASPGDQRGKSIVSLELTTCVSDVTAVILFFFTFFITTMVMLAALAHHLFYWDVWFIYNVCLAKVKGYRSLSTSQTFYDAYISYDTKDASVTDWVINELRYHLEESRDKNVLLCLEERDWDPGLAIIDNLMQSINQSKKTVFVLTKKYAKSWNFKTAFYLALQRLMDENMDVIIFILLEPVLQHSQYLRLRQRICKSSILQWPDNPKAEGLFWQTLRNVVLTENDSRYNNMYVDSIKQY
Description: (§1) HEK293 cells stably co-transfected with the appropriate hTLR (or NOD) and secreted alkaline phosphatase (sAP) were maintained in HEK-BLUE™ Selection medium. Stable expression of secreted alkaline phosphatase (sAP) under control of NF-κB/AP-1 promoters is inducible by appropriate TLR/NOD agonists, and extracellular sAP in the supernatant is proportional to NF-κB induction. Reporter cells were incubated at a density of ˜10^5 cells/ml in a volume of 80 μl/well, in 384-well, flat-bottomed cell culture-treated microtiter plates in the presence of graded concentrations of stimuli. sAP was assayed spectrophotometrically using an alkaline phosphatase-specific chromogen (present in HEK-detection medium as supplied by InvivoGen) at 620 nm.

[2] = tested on: TLR-2/-3/-4/-5/-7/-9 and NOD-1/NOD-2; test: TLR-2/-3/-4/-5/-7/-9 and NOD-1/NOD-2 counter-screens (reporter gene assays); type: cell-based, human
Description: as §1

[3] = molecular target: T1, human TLR8; conditions: reference compounds, literature values (Kokatla et al.); read-out: TLR8 EC50 (previously reported); cited from earlier work
[4] = tested on: human PBMCs; test: Cytokine/chemokine induction in human peripheral blood mononuclear cells (multiplexed bead array); type: cell-based; conditions: human PBMCs as well as whole human blood, FIG. 3
Description: Immunoassays for cytokines.

[5] = tested on: CD14+ monocytes; test: Eight-color flow cytometry of activation markers in human whole blood; type: cell-based; conditions: FIG. 5
Description: Eight-color Flow-cytometric immunostimulation experiments: Cell surface marker upregulation was determined by flow cytometry using protocols as described previously (Hood, J. D. et al. Hum. Vaccin. 2010, 6, 332-335), and modified for rapid-throughput. […] Serial dilutions of selected compounds were performed using a Bio-Tek Precision 2000 XS liquid handler in sterile 96-well polypropylene plates, to which were added 100 mL aliquots of anticoagulated whole human blood. The plates were incubated at 37° C. for 16 h. Negative (endotoxin free water) controls were included in each experiment. The following fluorochrome-conjugated antibodies were used: CD3-PE, CD19-FITC, CD56-APC (eBioscience, San Diego, CA), CD14-V500, CD28 PE-Cy7, CD40 V450, CD80 APC-H7, CD86 PerCP-Cy5.5 (Becton-Dickinson Biosciences, San Jose, CA). Following incubation, 2.5 μg of each antibody was added to wells with a liquid handler, and incubated at 4° C. in the dark for 60 min. […] CD28, CD40, CD80, and CD86 activation in the major leukocyte populations, viz., natural killer lymphocytes (NK cells: CD3-CD56+), cytokine-induced killer phenotype (CIK cells: CD3+CD56+), B lymphocytes (CD19+CD3-), T lymphocytes (CD3+CD56-), monocytes (CD14+), polymorphonuclear cells (CD14-) were quantified using FlowJo v 7.0 software (Treestar, Ashland, OR).

CCCCCc1cc2cccc(CCCCN)c2nc1N [Compound 37, 8-(4-Aminobutyl)-3-pentylquinolin-2-amine]
TLR8 Agonistic Activity (nM) [1]: Inactive

CCCCCc1cc2c(-c3cccc(CN)c3)cccc2nc1N [Compound 20a, 5-(3-(Aminomethyl)phenyl)-3-pentylquinolin-2-amine]
TLR8 Agonistic Activity (nM) [1]: Inactive

CCCCCc1cc2c(Cc3cccc(C(N)=O)c3)cccc2nc1N [Compound 18d, 3-((2-Amino-3-pentylquinolin-5-yl)methyl)benzamide]
TLR8 Agonistic Activity (nM) [1]: Inactive

CCCCCc1c(N)nc2ccccc2c1Cc1ccc(CN)cc1 [Compound 9b, 4-(4-(Aminomethyl)benzyl)-3-pentylquinolin-2-amine dihydrochloride]
specificity for TLR8 [2]: retained specificity for TLR8

C2-butyl furo[2,3-c]quinoline
EC50 [3]: 1.6 µM

CCCCCc1cc2c(CCCCCN)cccc2nc1N [Compound 34b, 5-(5-Aminopentyl)-3-pentylquinolin-2-amine]
induction of proinflammatory cytokines including TNF-α, IL-12 and IFN-γ [4]: induction of a specific set of proinflammatory cytokines was observed | CD40 upregulation [5]: upregulate CD40 | CD80 expression [5]: strongly induces CD80 expression

CCCCCc1cc2c(Cc3ccccc3)cccc2nc1N [Compound 17d, 5-Benzyl-3-pentylquinolin-2-amine]
TLR8 Agonistic Activity (nM) [1]: Inactive

CCCCCc1c(N)nc2ccccc2c1Cc1cccc(CN)c1 [Compound 9a, 4-(3-(Aminomethyl)benzyl)-3-pentylquinolin-2-amine dihydrochloride]
specificity for TLR8 [2]: retained specificity for TLR8

From patent US12180165B2, “Human TLR8-selective agonists” (University of Kansas, priority 2015, dated 2024)
